From patent US11466273B2, “Monocarboxylate transporter 4 (MCT4) antisense oligonucleotide (ASO) inhibitors for use as therapeutics in the treatment of cancer” (THE UNIVERSITY OF BRITISH COLUMBIA, priority 2015, dated 2022) come the findings set out here.

Strand notation (5' to 3'): a small letter for the sugar, then the base; units joined by * are phosphorothioate-linked, units joined directly phosphodiester-linked; [ ] holds rarer units or linkages, { } end groups; capitals alone tell only the bases. d = 2'-deoxy (DNA)

One series relates to MCT4. The experiment in a line: Percent inhibition of MCT4 by MCT4 ASOs (knock-down after transfection, qPCR/Western blot). Format: cell-based, human. Particulars: Table A; ASOs transfected at 100 nM for 48 hours unless otherwise indicated. How it is done: First-generation phosphorothioate-modified ASOs against human MCT4 were rationally designed by selecting sequences containing favourable motifs while excluding unfavourable ones (Matveeva et al., 2000). Specificity of MCT4-targeting sequences, compared to human and mouse genes (at least 3 of 20 bases mismatched), was evaluated using BLAST. Ten sequences SEQ ID No: 1, 4, 5, 9, 11, 30, 36, 37, 40 and 41 (see TABLE A) distributed throughout the length of the transcript with perfect complementarity to all human MCT4 transcript variants (NM_001042422.2, NM_001042423.2, NM_001206950.1, NM_001206951.1, NM_001206952.1, and NM_004207.3) were selected and synthesized by Eurofins MWG Operon. The knock-down efficiencies of these ten ASOs were tested by determining target mRNA and protein expression 48 hours after transfection of cells using qPCR and Western blotting. Two candidate ASOs (#1 and #14—SEQ ID NOs: 1 and 5, respectively) were selected for further studies. Sequences: ASO #1 (SEQ ID NO: 1), 5′-[…]-3′; ASO #14 (SEQ ID NO: 5), 5′-[…]-3′; a published non-targeting control ASO, 5′-[…]-3′ (Mullick et al., 2011; Samuel et al., 2006).
Cells were transfected in 6-well plates with ASOs at 100 nM for 48 hours (unless otherwise indicated) using Oligofectamine™ (Invitrogen™, Carlsbad, Calif.) or with MCT4-targeting siRNAs and controls (Dharmacon™, Chicago, Ill.) at 50 nM for 48 hours using Lipofectamine™ 2000 (Invitrogen™), following the manufacturer's instructions.
Total RNA was isolated using the RNeasy Mini Kit™ (Qiagen Inc.™, Hilden, Germany) and cDNA synthesized using the QuantiTect Reverse Transcription Kit™ (Qiagen™). Primers were designed using Primer-BLAST™. qRT-PCR reactions using KAPA SYBR Fast Universal™ (Kapa Biosystems™, Woburn, Mass.) were performed in triplicate in a ViiA 7 Real-Time PCR™ system (Applied Biosystems™, Foster City, Calif.). Target genes were normalized to a geometric average of 3 internal reference genes (Vandesompele et al., 2002).
Cells were harvested and lysed in RIPA buffer (50 mM Tris-Cl pH 7.4, 150 mM NaCl, 1% Igepal, 0.5% Na-deoxycholate, 0.1% SDS) supplemented with a complete protease inhibitor cocktail (Roche, Nutley, N.J.). The protein concentration of the lysate was determined by Pierce BCA Protein Assay™ (Thermo Scientific™, Waltham, Mass.). The lysate was run on 8% SDS polyacrylamide gel (20 ug of protein per lane) and proteins were transferred onto PVDF membrane (Millipore™, Billerica, Mass.). The blot was blocked with the Odyssey™ blocking buffer (Li-cor Biosciences™) and probed with anti-MCT4 antibody. Vinculin was used as a loading control. Following overnight incubation at 4° C., the primary antibody was probed with the corresponding secondary antibody and detected using the Odyssey Infrared Imaging System™ (Li-cor Biosciences™) and Image Studio Version 3.1™ (Li-cor Biosciences™). Densitometry analysis was done using ImageJ (U.S. National Institutes of Health, Bethesda, Md.).
A general note: In qPCR the cycle at which signal appears reflects the starting amount.
As for “1 (TCCCATGGCCAGGAGGGTTG; antisense; DNA, all phosphorothioate, methylation of C not given here; listed as Homo sapiens) [compound 1]”, the “% MCT4 Inhibition” value was 65.52%.

Regarding “2 (GTCCCGGAAGACGCTCAGGT; antisense; DNA, all phosphorothioate, methylation of C not given here; listed as Homo sapiens) [compound 2]”, the “% MCT4 Inhibition” value was found to be 86.33%. On to “3 (AAGGACGCAGCCACCATGCC; antisense; DNA, all phosphorothioate, methylation of C not given here; listed as Homo sapiens) [compound 3]”, for which the “% MCT4 Inhibition” value came out at 71.19%. The same measure, in the same setting: the value for “4 (TTGGCGTAGCTCACCACGAA; antisense; DNA, all phosphorothioate, methylation of C not given here; listed as Homo sapiens) [compound 4]” was 77.13%; that for “5 (AGATGCAGAAGACCACGAGG; antisense; DNA, all phosphorothioate, methylation of C not given here; listed as Homo sapiens) [compound 5]” was 78.16%. Regarding “6 (CCACTCTGGAATGACACGGT; antisense; DNA, all phosphorothioate, methylation of C not given here; listed as Homo sapiens) [compound 6]”, the “% MCT4 Inhibition” value is on record as 78.67%. Still for that read-out and setting: the same measure for “7 (GTAGGAGAAGCCAGTGATGAC; antisense; DNA, all phosphorothioate, methylation of C not given here; listed as Homo sapiens) [compound 7]”: 66.31%. As to “8 (AGCATGGCCAGCAGGATGGA; antisense; DNA, all phosphorothioate, methylation of C not given here; listed as Homo sapiens) [compound 8]”, the “% MCT4 Inhibition” value was found to be 80.77%.

For the substance “9 (GGCTGGAAGTTGAGTGCCAA; antisense; DNA, all phosphorothioate, methylation of C not given here; listed as Homo sapiens) [compound 9]”, the “% MCT4 Inhibition” value stood at 76.03%. Same read-out and setting: the same measure for “10 (CATGCCGTAGGAGATGCCAA; antisense; DNA, all phosphorothioate, methylation of C not given here; listed as Homo sapiens) [compound 10]”: 76.51%; for “11 (CTCAGGCTGTGGCTCTTTGG; antisense; DNA, all phosphorothioate, methylation of C not given here; listed as Homo sapiens) [compound 11]”: 63.01%; for “12 (TAGCGGTTCAGCATGATGA; antisense; DNA, all phosphorothioate, methylation of C not given here; listed as Homo sapiens) [compound 12]”: 70.36%. The same measure, in the same setting: the value for “13 (AGCACGGCCCAGCCCCAGCC; antisense; DNA, all phosphorothioate, methylation of C not given here; listed as Homo sapiens) [compound 13]” was 66.85%; that for “14 (GAGCTCCTTGAAGAAGACACT; antisense; DNA, all phosphorothioate, methylation of C not given here; listed as Homo sapiens) [compound 14]” was 72.00%; that for “15 (dC*dA*dG*dG*dA*dT*dG*dG*dA*dG*dG*dA*dG*dA*dT*dC*dC*dA*dG*dG; antisense; listed as Homo sapiens) [compound 15]” was 75.58%. In the case of “16 (dA*dG*dA*dC*dC*dC*dC*dC*dC*dA*dC*dA*dA*dG*dC*dA*dT*dG*dA*dC; antisense; listed as Homo sapiens) [compound 16]”, the “% MCT4 Inhibition” value was 55.47%. Same read-out and setting: the value for “17 (dG*dA*dA*dG*dT*dT*dG*dA*dG*dT*dG*dC*dC*dA*dA*dA*dC*dC*dC*dA*dA; antisense; listed as Homo sapiens) [compound 17]” was 70.93%; that for “18 (dC*dC*dC*dG*dT*dT*dG*dG*dC*dC*dA*dT*dG*dG*dG*dG*dC*dG*dC*dC; antisense; listed as Homo sapiens) [compound 18]” was 71.14%. Same read-out and setting: the same measure for “19 (dG*dC*dC*dA*dG*dC*dC*dC*dG*dT*dT*dG*dG*dC*dC*dA*dT*dG*dG*dG; antisense; listed as Homo sapiens) [compound 19]”: 80.26%. The same measure, in the same setting: the same measure for “20 (dA*dG*dG*dA*dA*dG*dA*dC*dA*dG*dG*dG*dC*dT*dA*dC*dC*dT*dG*dC; antisense; listed as Homo sapiens) [compound 20]”: 66.26%; for “21 (dG*dC*dA*dC*dA*dC*dA*dG*dG*dA*dA*dG*dA*dC*dA*dG*dG*dG*dC*dT; antisense; listed as Homo sapiens) [compound 21]”: 60.36%; for “22 (dC*dA*dG*dG*dG*dC*dA*dC*dA*dC*dA*dG*dG*dA*dA*dG*dA*dC*dA*dG; antisense; listed as Homo sapiens) [compound 22]”: 79.96%.

Turning to “23 (dC*dA*dG*dC*dA*dG*dT*dT*dG*dA*dG*dC*dA*dG*dC*dA*dG*dG*dC*dC; antisense; listed as Homo sapiens) [compound 23]”, the “% MCT4 Inhibition” value stood at 65.41%. Still for that read-out and setting: the same measure for “24 (dG*dA*dC*dC*dT*dG*dT*dC*dC*dC*dG*dT*dA*dG*dA*dG*dC*dA*dT*dG; antisense; listed as Homo sapiens) [compound 24]”: 47.24%; for “25 (dT*dT*dC*dC*dC*dA*dA*dG*dC*dC*dC*dC*dG*dC*dC*dA*dC*dG*dA*dA; antisense; listed as Homo sapiens) [compound 25]”: 22.88%; for “26 (dA*dA*dT*dG*dC*dT*dC*dC*dA*dC*dC*dT*dC*dC*dC*dG*dC*dA*dA*dG; antisense; listed as Homo sapiens) [compound 26]”: 9.55%. On the same count and under the same terms, the value for “27 (dA*dC*dC*dT*dC*dC*dC*dC*dG*dT*dT*dT*dT*dT*dC*dT*dC*dA*dG*dG; antisense; listed as Homo sapiens) [compound 27]” was 3.17%; that for “28 (dT*dG*dT*dG*dA*dA*dC*dC*dA*dC*dC*dT*dC*dC*dC*dC*dG*dT*dT*dT; antisense; listed as Homo sapiens) [compound 28]” was 29.91%. On the same count and under the same terms, the same measure for “29 (dT*dC*dT*dG*dT*dA*dC*dC*dT*dC*dC*dT*dC*dC*dC*dT*dG*dT*dG*dC; antisense; listed as Homo sapiens) [compound 29]”: 16.31%. Regarding “30 (dG*dA*dA*dT*dG*dA*dC*dA*dC*dG*dG*dT*dT*dC*dC*dC*dA*dC*dC*dC; antisense; listed as Homo sapiens) [compound 30]”, the “% MCT4 Inhibition” value came out at 25.51%. Take “31 (dG*dC*dC*dC*dA*dC*dC*dC*dA*dC*dC*dC*dT*dC*dC*dC*dA*dT*dT*dA; antisense; listed as Homo sapiens) [compound 31]”: the “% MCT4 Inhibition” value is reported as -43.4%. Still for that read-out and setting: the value for “32 (dA*dA*dG*dA*dG*dA*dC*dC*dC*dC*dC*dC*dA*dC*dA*dA*dG*dC*dA*dT; antisense; listed as Homo sapiens) [compound 32]” was 18.67%; that for “33 (dC*dC*dC*dA*dC*dC*dA*dT*dG*dC*dC*dG*dT*dA*dG*dG*dA*dG*dA*dT; antisense; listed as Homo sapiens) [compound 33]” was 49.00%. Still for that read-out and setting: the value for “34 (dA*dG*dT*dC*dC*dA*dC*dC*dC*dC*dC*dG*dA*dG*dT*dC*dT*dG*dC*dA; antisense; listed as Homo sapiens) [compound 34]” was 20.5%.

The series is the same for the next values; noted with them: Table B; SEQ ID NO 1 and 16 mer truncations.
Take “1 (TCCCATGGCCAGGAGGGTTG; antisense; DNA, all phosphorothioate, methylation of C not given here; listed as Homo sapiens) [compound 1]”: the “% MCT4 Inhibition” value was found to be 65.52%.
